The target of experiment [1] is T1, menin/MLL (terbium chelate-labeled menin, FITC-MBM1 peptide) (Homo sapiens, UniProt O00255, T541A).
T1 construct: Menin (a.a 1-610-6xhis tag, 2.3 mg/mL in 20 mM Hepes)
T1 sequence (O00255 with tags, fused parts or gaps T541A): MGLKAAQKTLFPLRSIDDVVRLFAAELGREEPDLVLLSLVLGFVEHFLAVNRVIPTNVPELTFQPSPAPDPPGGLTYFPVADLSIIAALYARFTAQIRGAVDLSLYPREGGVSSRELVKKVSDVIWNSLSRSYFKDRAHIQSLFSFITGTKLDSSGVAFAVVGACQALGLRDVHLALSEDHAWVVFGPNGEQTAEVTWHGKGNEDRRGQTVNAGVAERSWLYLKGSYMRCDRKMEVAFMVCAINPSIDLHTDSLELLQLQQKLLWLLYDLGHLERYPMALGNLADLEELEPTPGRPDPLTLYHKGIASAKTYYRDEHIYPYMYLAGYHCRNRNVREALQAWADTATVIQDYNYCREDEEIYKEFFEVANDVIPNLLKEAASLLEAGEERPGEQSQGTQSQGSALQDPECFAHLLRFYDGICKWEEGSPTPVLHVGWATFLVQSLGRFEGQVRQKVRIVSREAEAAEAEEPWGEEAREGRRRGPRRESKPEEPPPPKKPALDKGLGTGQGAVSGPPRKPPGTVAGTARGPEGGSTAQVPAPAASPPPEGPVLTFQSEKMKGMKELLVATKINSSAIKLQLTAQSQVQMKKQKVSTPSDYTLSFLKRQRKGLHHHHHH
The experiment in a line: Menin/MLL homogenous time-resolved fluorescence (HTRF) assay. The settings on record: 30 min incubation. In kind it is binding. An outline of the steps:
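Terbium-labeled menin (a.a. 1-610, His-tagged; […]) pre-incubated 30 min with compound, then 75 nM FITC-MBM1 peptide added for 15 min at ambient temperature in Tris pH 7.5 buffer, 0.5% DMSO. HTRF 520/490 nm ratio read; IC50 from 11-point four-fold titrations, typically from 10 μM.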
Background: In TR-FRET formats the signal depends on donor and acceptor labels being close together.

The test system of another experiment is MEIS1 mRNA expression. Nature of the experiment: MEIS1 mRNA expression assay (Quantigene Singleplex) in MOLM14 cells. Conditions: 48 hours incubation. The class given is cell-based, human. Summed up: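 MOLM14 cells, 3,750/well, exposed to increasing compound concentrations for 48 h. MEIS1 mRNA measured by QuantiGene Singleplex branched-DNA hybridization (lysis 45 min, hybridization 18–22 h, both 55 °C), normalized to RPL28. IC50 fitted to background-corrected fold change versus DMSO.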

As usually defined, the IC50 is the concentration at which inhibition is half-maximal. The low end stands for higher potency, the high end for lower potency.

For the compound `CN=[S@@](=O)(c1cc(F)ccc1-n1cc(C[C@@H]2CCN(CC3CCN(C(C)=O)CC3)C2)c2c(C)cncc21)C(C)C` (single isomer, unassigned) [Compound 128c], the IC50 in experiment [1] is 1.01 nM; in the experiment with MEIS1 mRNA expression (Homo sapiens, MOLM-14, 48 h), approximately 487 nM.
Regarding `Cc1cncc2c1c(CC1CNC(CC3CCOCC3)C1)cn2-c1ccc(F)cc1C(=O)N(C)C(C)C` (single isomer, unassigned) [Compound 134a], the values for the IC50 (in experiment [1]; with MEIS1 mRNA expression) were 0.032 nM and 86 nM, respectively.
On the same counts, the results for `Cc1cncc2c1c(CC1CNC(CC3CCOCC3)C1)cn2-c1ccc(F)cc1C(=O)N(C)C(C)C` (single isomer, unassigned) [Compound 134b] are 0.988 nM and more than 1000 nM.
Turning to `Cc1cncc2c1c(CC1CNC(CC3CCOCC3)C1)cn2-c1ccc(F)cc1C(=O)N(C)C(C)C` (single isomer, unassigned) [Compound 134c], the results for the IC50 (in experiment [1]; in the experiment on MEIS1 mRNA expression) were 0.073 nM and 119 nM, respectively.
The matching figures for `Cc1cncc2c1c(CC1CNC(CC3CCOCC3)C1)cn2-c1ccc(F)cc1C(=O)N(C)C(C)C` (single isomer, unassigned) [Compound 134d]: 0.425 nM and more than 1000 nM.
For the compound `Cc1cncc2c1c(C[C@H]1CCN(CC3CCN(C(=O)C4CC4)CC3)C1)cn2-c1ccc(F)cc1C(=O)N(C)C(C)C` (single isomer, unassigned) [Compound 135], the half-inhibitory concentration (IC50) was approximately 0.056 nM in experiment [1] and 7 nM with MEIS1 mRNA expression (Homo sapiens, MOLM-14, 48 h).
For `CC(=O)N1CCC(N2CC[C@H](Cc3cn(-c4ccc(F)cc4C(=O)N(C)C(C)C)c4cncc(C)c34)C2)C(C)C1` (single isomer, unassigned) [Compound 137b], the results for the IC50 (in experiment [1]; in the experiment on MEIS1 mRNA expression) were approximately 0.34 nM and 43 nM, respectively.
In the case of `Cc1cncc2c1c(C[C@@H]1CCN([C@H]3CCNC(=O)CC3)C1)cn2-c1ccc(F)cc1C(=O)N(C)C(C)C` (single isomer, unassigned) [Compound 139a], the IC50 in experiment [1] is 0.122 nM; in the experiment with MEIS1 mRNA expression (Homo sapiens, MOLM-14, 48 h) it was approximately 810 nM.
On the same counts, the results for `Cc1cncc2c1c(C[C@@H]1CCN([C@@H]3CCNC(=O)CC3)C1)cn2-c1ccc(F)cc1C(=O)N(C)C(C)C` (single isomer, unassigned) [Compound 139b] are 0.087 nM and 716 nM.
The matching figures for `Cc1cncc2c1c(C[C@@H]1CCN(C[C@@H]3CCCCO3)C1)cn2-c1ccc(F)cc1C(=O)N(C)C(C)C` (single isomer, unassigned) [Compound 147b]: 0.073 nM and approximately 105 nM.
Take `CC(=O)N1CCC([C@H](C)N2CC(Cc3cn(-c4ccc(F)cc4C(=O)N(C)C(C)C)c4cncc(C)c34)C2)CC1` (single isomer, unassigned) [Compound 151]: the IC50 in experiment [1] was found to be 3.77 nM; in the experiment with MEIS1 mRNA expression (Homo sapiens, MOLM-14, 48 h) it was 1350 nM.
The matching figures for `COC[C@@H](C1CCCCO1)N1CC[C@@H](Cc2cn(-c3ccc(F)cc3C(=O)N(C)C(C)C)c3cncc(C)c23)C1` (single isomer, unassigned) [Compound 165a]: 0.173 nM and approximately 180 nM.
The matching figures for `Cc1cncc2c1c(C[C@@H]1CCN([C@@H](C)C3CCOCC3)C1)cn2-c1ccc(F)cc1[S@](=N)(=O)C(C)C` (single isomer, unassigned) [Compound 180b]: 7.29 nM and approximately 2810 nM.
On to `Cc1cncc2c1c(C[C@H]1CCN([C@@H](C)C3CCOCC3)C1)cn2-c1ccc(F)cc1[S@](=N)(=O)C(C)C` (single isomer, unassigned) [Compound 181b], for which the IC50 is 4.58 nM in experiment [1] and 1910 nM in the experiment on MEIS1 mRNA expression (Homo sapiens, MOLM-14, 48 h).
On the same counts, the results for `Cc1cncc2c1c(C[C@@H]1CCN([C@H](C)C3CCOCC3)C1)cn2-c1ccc(F)cc1[S@@](=N)(=O)C(C)C` (single isomer, unassigned) [Compound 182a] are 0.462 nM and 287 nM.
The matching figures for `Cc1cncc2c1c(C[C@@H]1CCN([C@@H](C)C3CCOCC3)C1)cn2-c1ccc(F)cc1[S@@](=N)(=O)C(C)C` (single isomer, unassigned) [Compound 182b]: 3.1 nM and 1770 nM.
With `Cc1cncc2c1c(C[C@H]1CCN([C@H](C)C3CCOCC3)C1)cn2-c1ccc(F)cc1[S@@](=N)(=O)C(C)C` (single isomer, unassigned) [Compound 183a], the IC50 in experiment [1] came to 0.37 nM; with MEIS1 mRNA expression (Homo sapiens, MOLM-14, 48 h) it was 307 nM.
The matching figures for `Cc1cncc2c1c(C[C@H]1CCN([C@@H](C)C3CCOCC3)C1)cn2-c1ccc(F)cc1[S@@](=N)(=O)C(C)C` (single isomer, unassigned) [Compound 183b]: 2.61 nM and approximately 2040 nM.
On the same counts, the results for `Cc1cncc2c1c(CC1CCN(CC3CNC(=O)C3)CC1)cn2-c1ccc(F)cc1C(=O)N(C)C(C)C` (single isomer, unassigned) [Compound 186a] are 0.447 nM and 419 nM.
The matching figures for `Cc1cncc2c1c(CC1CCN(C[C@@H]3CNC(=O)C3)CC1)cn2-c1ccc(F)cc1C(=O)N(C)C(C)C` (single isomer, unassigned) [Compound 186b]: 0.932 nM and 504 nM.
As to `Cc1cncc2c1c(CC1CN([C@H](C)C3CCS(=O)(=O)CC3)C1)cn2-c1ccc(F)cc1C(=O)N(C)C(C)C` (single isomer, unassigned) [Compound 213a], the IC50 is 0.567 nM in experiment [1] and 1150 nM with MEIS1 mRNA expression (Homo sapiens, MOLM-14, 48 h).
For `Cc1cncc2c1c(CC1CN([C@@H](C)C3CCS(=O)(=O)CC3)C1)cn2-c1ccc(F)cc1C(=O)N(C)C(C)C` (single isomer, unassigned) [Compound 213b], the IC50 is 1.63 nM in experiment [1] and approximately 2300 nM in the experiment on MEIS1 mRNA expression (Homo sapiens, MOLM-14, 48 h).
On the same counts, the results for `CC(=O)N1CCC(CN2CC[C@@H](Cc3cn(-c4ccc(F)cc4[S@@]4(=O)=NCCC4)c4cncc(C)c34)C2)CC1` (single isomer, unassigned) [Compound 214a] are 1.29 nM and approximately 605 nM.
The matching figures for `CC(=O)N1CCC(CN2CC[C@@H](Cc3cn(-c4ccc(F)cc4[S@]4(=O)=NCCC4)c4cncc(C)c34)C2)CC1` (single isomer, unassigned) [Compound 214b]: 11.7 nM and approximately 7280 nM.
The matching figures for `CC(=O)N1CCC(CN2CC[C@H](Cc3cn(-c4ccc(F)cc4[S@@]4(=O)=NCCC4)c4cncc(C)c34)C2)CC1` (single isomer, unassigned) [Compound 224a]: 30.7 nM and more than 1000 nM.
Turning to `CC(=O)N1CCC(CN2CC[C@H](Cc3cn(-c4ccc(F)cc4[S@]4(=O)=NCCC4)c4cncc(C)c34)C2)CC1` (single isomer, unassigned) [Compound 224b], the IC50 in experiment [1] was 2.77 nM; in the experiment on MEIS1 mRNA expression (Homo sapiens, MOLM-14, 48 h), more than 1000 nM.
The matching figures for `CC(=O)N1CCC([C@@H](C)N2CC[C@@H](Cc3cn(-c4ccc(F)cc4[S@](=N)(=O)C(C)C)c4cncc(C)c34)C2)CC1` (single isomer, unassigned) [Compound 230a]: 0.053 nM and 77 nM.
The matching figures for `CC(=O)N1CCC([C@H](C)N2CC[C@@H](Cc3cn(-c4ccc(F)cc4[S@](=N)(=O)C(C)C)c4cncc(C)c34)C2)CC1` (single isomer, unassigned) [Compound 230b]: 5.45 nM and more than 1000 nM.
The matching figures for `CC(=O)N1CCC([C@@H](C)N2CC[C@@H](Cc3cn(-c4ccc(F)cc4[S@@](=N)(=O)C(C)C)c4cncc(C)c34)C2)CC1` (single isomer, unassigned) [Compound 231a]: 0.311 nM and 52 nM.
Consider `CC(=O)N1CCC([C@H](C)N2CC[C@@H](Cc3cn(-c4ccc(F)cc4[S@@](=N)(=O)C(C)C)c4cncc(C)c34)C2)CC1` (single isomer, unassigned) [Compound 231b], for which the IC50 in experiment [1] was 6.94 nM; in the experiment on MEIS1 mRNA expression (Homo sapiens, MOLM-14, 48 h), more than 1000 nM.
The matching figures for `CC(=O)N1CCC([C@@H](C)N2CC[C@H](Cc3cn(-c4ccc(F)cc4[S@](=N)(=O)C(C)C)c4cncc(C)c34)C2)CC1` (single isomer, unassigned) [Compound 232a]: 0.624 nM and approximately 448 nM.
The matching figures for `CC(=O)N1CCC([C@H](C)N2CC[C@H](Cc3cn(-c4ccc(F)cc4[S@](=N)(=O)C(C)C)c4cncc(C)c34)C2)CC1` (single isomer, unassigned) [Compound 232b]: 4.04 nM and more than 1000 nM.
The matching figures for `CC(=O)N1CCC([C@@H](C)N2CC[C@H](Cc3cn(-c4ccc(F)cc4[S@@](=N)(=O)C(C)C)c4cncc(C)c34)C2)CC1` (single isomer, unassigned) [Compound 233a]: 0.171 nM and 247 nM.

(Values after US20230250096A1, “SUBSTITUTED PHENYL-1H-PYRROLO[2,3-c] PYRIDINE DERIVATIVES” (Janssen Pharmaceutica NV, priority 2021, published 2023).)
